Experiments:
A549 and MDA-MB231 cells = experiment: Immunoblotting of CK2-dependent substrate phosphorylation and apoptosis markers; assay type: cell-based, human; conditions: A549 24 hours, MDA-MB231 48 hours
786-O and RPTEC cells = experiment: as above; assay type: cell-based; conditions: 48 hours or 24 hours, increasing concentrations
[1] = test system: MCF10-A cells (WT and CK2β-depleted); experiment: Cell death, IncuCyte propidium iodide live-cell imaging; assay type: cell-based; conditions: n=5
RPTEC cells = experiment: as above; assay type: cell-based; conditions: 48 hours, 1 μM AB668 with 5 μM tariquidar (n=5)
786-O cells = experiment: as above; assay type: cell-based, human
MDA-MB231 cells = experiment: as above; assay type: cell-based, human; conditions: 48 hours, increasing concentrations
CK2 = CK2 (Homo sapiens (Human), UniProt P68400); experiment: Radiometric CK2 kinase assay; assay type: biochemical
Sequence of CK2 (P68400 whole entry): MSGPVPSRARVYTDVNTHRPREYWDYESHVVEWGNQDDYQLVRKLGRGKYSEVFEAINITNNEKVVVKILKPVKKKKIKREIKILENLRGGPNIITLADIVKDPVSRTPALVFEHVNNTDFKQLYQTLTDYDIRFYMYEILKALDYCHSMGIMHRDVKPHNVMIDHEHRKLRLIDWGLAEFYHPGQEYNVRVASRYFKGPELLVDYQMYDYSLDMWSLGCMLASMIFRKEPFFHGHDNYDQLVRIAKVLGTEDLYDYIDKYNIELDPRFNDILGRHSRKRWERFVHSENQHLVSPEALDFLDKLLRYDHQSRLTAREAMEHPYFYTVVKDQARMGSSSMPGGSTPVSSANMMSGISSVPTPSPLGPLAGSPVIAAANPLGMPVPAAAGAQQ

SMILES	CK2-dependent substrate phosphorylation and apoptosis (western blot) (A549 and MDA-MB231 cells)	CK2-dependent substrate phosphorylation and apoptosis (western blot) (786-O and RPTEC cells)	Cell death in CK2β-depleted versus WT cells [1]	Effect of P-glycoprotein inhibitor tariquidar on compound effect (RPTEC cells)	Cell death induction in RCC lines compared to normal cells (786-O cells; 24 hours, 786-O (VHL+/−) at 1 μM, RPTEC at 10 μM (n=5))	Sensitivity to compound-mediated cell death, 786-O versus RPTEC or HEK 293 (786-O cells; 36 hours, increasing concentrations (n=4 to 6))	Cell death induction compared to CX-4945 and sunitinib (786-O cells; at 5 and 2.5 μM)	Sensitivity to compound-mediated cell death, MDA-MB231 versus normal MCF10A (MDA-MB231 cells)	IC50 (CK2) [nM]	Mechanism of CK2 inhibition with respect to ATP (CK2; Lineweaver-Burk analysis (n=2))	Mechanism of inhibition towards CK2β (CK2; Lineweaver-Burk analysis (n=2))	inhibition at 0.1 µM (CK2; compound at 0.10 μM, ATP 10 μM) [%]
CC(C)COC(=O)c1[nH]c2ccc(F)cc2c1-c1cn(CC2CCN(CCNS(=O)(=O)c3ccc(CC(C)C)cc3)CC2)nn1 [AB668, Isobutyl 5-fluoro-3-(1-((1-(2-((4-isobutylphenyl)sulfonamido)ethyl)piperidin-4-yl)methyl)-1H-1,2,3-triazol-4-yl)-1H-indole-2-carboxylate]	inhibit CK2-dependent substrate phosphorylation and induce apoptosis in different cancer cell lines	inhibit CK2-dependent substrate phosphorylation in cells and induce apoptosis	more pronounced in CK2β-depleted cells than in WT cells	has not changed the effect of AB668	much more efficient in inducing cell death in RCC lines	much more sensitive	much more efficient in inducing cell death	much more sensitive	–	–	–	–
CCOC(=O)c1[nH]c2ccc(F)cc2c1-c1cn(CC2CCN(CCNS(=O)(=O)c3ccc(CC)cc3)CC2)nn1 [AB526, Ethyl 3-(1-((1-(2-((4-ethylphenyl)sulfonamido)ethyl)piperidin-4-yl)methyl)-1H-1,2,3-triazol-4-yl)-5-fluoro-1H-indole-2-carboxylate]	inhibit CK2-dependent substrate phosphorylation and induce apoptosis in different cancer cell lines	inhibit CK2-dependent substrate phosphorylation in cells and induce apoptosis	–	–	–	–	–	much more sensitive	300	non-ATP competitive mechanism of CK2 inhibition	mixed competitive inhibition towards CK2β	–
CC(=O)c1[nH]c2ccc(F)cc2c1-c1cn(CC2CCN(CCNS(=O)(=O)c3ccc(-c4c(C#N)cccc4C(F)(F)F)cc3)CC2)nn1 [AB1393, N-(2-(4-((4-(2-acetyl-5-fluoro-1H-indol-3-yl)-1H-1,2,3-triazol-1-yl)methyl)piperidin-1-yl)ethyl)-2′-cyano-6′-(trifluoromethyl)-[1,1′-biphenyl]-4-sulfonamide]	–	–	–	–	–	–	–	–	–	–	–	31

— patent US20230278983A1, “INDOLE DERIVATIVES AND USES THEREOF FOR TREATING A CANCER” (Universite Claude Bernard Lyon 1, priority 2020, published 2023)
